# Measured values published in US20200163938A1, “PHARMACEUTICAL COMPOSITION COMPRISING IRON CHELATOR EXHIBITING ANTITUMOR ACTIVITY, ANTIBACTERIAL ACTIVITY AND/OR ANTIVIRUS ACTIVITY, AND HAVING REDUCED SIDE EFFECTS” (priority 2017, published 2020).
# Where “and” joins values, the source holds several entries; their conditions need not be identical. Equal entries are not always repeated. Entries after “also recorded” stand apart in the source; their conditions may differ. Structures can show the parent of a compound that is named as a salt. Where two headings read alike, the source gives them in different places.
# Assays:
# [1] = mouse, in vivo, 300 mg/kg
# Procedure: To each of 6-week-old Jcl: ICR mice divided into a test group 6 administration group (n=3), a test group 9 administration group (n=3), and a test group 10 administration group (n=3), the chelating agent of each test group was administered at a dose of 300 mg/kg body weight via tail vein. To a positive control group (administration; n=4), deferoxamine mesylate was administered at a dose of 300 mg/kg body weight via tail vein. On day 7 after administration, determining life or death, and physical items (respiration, body temperature, behavior, etc.) were observed.
# [2] = test system: human influenza virus PR8 [A/PUERTORICO/8/34 (H1N1)]; experiment: Suppression of viral infection of MDCK cells; type: cell-based; conditions: 48 hours
# Procedure: MDCK cells (canine renal tubule epithelial cells) were infected with a human influenza virus, and then an effect of suppressing the viral infection of MDCK cells was confirmed. Specifically, PR8 [A/PUERTORICO/8/34 (H1N1)] was adjusted at TCID50=2.81×10^6/mL as the influenza virus, the viral liquid and an equivalent amount of the chelating agent of test group 10 (concentration: 100 μg/mL, 250 μg/mL, 500 μg/mL, or 1000 μg/mL) were mixed and then left to stand at room temperature for 30 minutes. The above-prepared viral liquid was added to MDCK cells. After 48 hours, cells were observed, living cells (specifically, non-infected cells) remaining on the bottom of the culture dish were observed under a microscope. Results were as depicted in FIG. 16A.
# [3] = test system: P. gingivalis Pg W83; experiment: Antibacterial activity, turbidity and ATP assay; type: cell-based, Porphyromonas gingivalis; conditions: anaerobic culture 37° C., 18 hours, OD595 nm; FIG. 8
# Procedure: A bacterial strain of one of periodontopathic bacteria, gram-negative bacillus, P. gingivalis, used herein was Pg W83. With the use of a liquid medium prepared by adding the chelating agent of each test group to a modified GAM bouillon medium, anaerobic culture (Anaeropack.anaerobic) was performed at 37° C. for 18 hours. Turbidity was found from optical density (OD595 nm). Results were as depicted in FIG. 8.
# [4] = type: in vivo; set-up: NEFA: unit not given here; conditions: for Body weight: rats
# Procedure: To a negative control group (saline administration; n=6), the same amount of saline was administered. On day 14 after administration, determining life or death, measurement of body weight, physical items (respiration, body temperature, behavior, etc.) were observed. Moreover, blood samples were taken from each group, and the right kidneys and the livers were removed. Results were as depicted in FIG. 5A to 5C and Tables 4 to 9.
# [5] = test system: subcutaneously-transplanted HCT116 cells; type: in vivo, nude mice (BALB/c nu/nu)
# Procedure: Next, the antitumor effects of the chelating agents of test groups 6 and 10 on HCT116-cell subcutaneous transplantation model mice, into which HCT116 cells had been subcutaneously transplanted, were confirmed. Mice prepared herein were nude mice (BALB/c nu/nu, 6 weeks old: Clea Japan Inc.). HCT116 cells were adjusted at 3×10^6/mouse, and then mixed with Matrigel (BD Biosciences) at 1:1. The thus obtained mixture was administered to mice, thereby preparing subcutaneous tumors. The dosage was 200 mg/kg/day (5 times/week administration). […] Tissue sections of HCT116 cells subcutaneously transplanted into the test group 10 administration group were prepared, and then hematoxylin-eosin (HE) staining, and TUNEL staining were performed by the above-mentioned method.
# [6] = test system: HSC-2 cells; experiment: Western blot of apoptosis-related factors; type: cell-based, human; conditions: HSC-2 cell lysate; FIG. 12
# From the text: (§1) The cell lysate of each type of cells treated with the chelating agents of test groups 6 and 10 was Western-blotted, and then an increase or a decrease in apoptosis-related factors in treated cells was confirmed using the indicated antibodies. […] Concentration-dependent apoptosis induction was also biochemically confirmed.
# [7] = test system: A549 cells; experiment: Western blot of apoptosis-related factors; type: cell-based, human; conditions: A549 cell lysate; FIG. 12
# From the text: as §1
# [8] = test system: MCF-7 cells; experiment: Western blot of apoptosis-related factors; type: cell-based, human; conditions: MCF-7 cell lysate; FIG. 12
# From the text: as §1
# [9] = test system: HCT116 cells; experiment: Apoptosis induction, TUNEL staining; type: cell-based, human; conditions: 6.5 µg/mL, 48 hours, FIG. 11B
# Procedure: (§2) Furthermore, the apoptosis-inducing effects of the chelating agents of test groups 6 and 10 on tumors were confirmed. First, 100 μg/mL of the chelating agent of test group 6 or 50 μg/mL of the chelating agent of test group 10 was added to HSC-2 cells in a culture solution. After 48 hours of reaction, TUNEL Assay was carried out. Specifically, apoptosis induction was evaluated by the TUNEL staining method using a MK500 in situ Apoptosis Detection Kit (Takara Bio Inc.).
# (§3) Similarly, the apoptosis-inducing effects of the chelating agent of test group 6 or 10 on HCT116 cells were confirmed. 10 μg/mL of the chelating agent of test group 6 was added and 6.5 µg/mL of the chelating agent of test group 10 was added to the cells. After 48 hours of reaction, TUNEL staining was carried out similarly to the above.
# [10] = test system: A549 cells; experiment: Apoptosis induction, TUNEL staining; type: cell-based, human; conditions: 50 μg/mL, 48 hours, FIG. 11C
# Procedure: as §2
# as §3, with “Further, the” for “Similarly, the”, “on A549” for “on HCT116”, “confirmed. 100” for “confirmed. 10”, “and 50 μg/mL” for “and 6.5 µg/mL”
# [11] = test system: human breast cancer cell line MCF-7; experiment: Antitumor effects, cell viability (XTT method); type: cell-based; conditions: FIG. 9
# Procedure: (§4) The antitumor effects of the chelating agents of test groups 1 to 10 on each of human lung cancer cell line A549, human liver cancer cell line PLC, and human colon adenocarcinoma cell line HCT116 were confirmed. A549 cells or PLC cells were seeded at 3000 cells/well, and HCT116 cells were seeded at 6000 cells/well. After 24 hours, the fetal bovine serum (FBS) concentration was changed from 10% to 1%, each compound of the test groups 1 to 10 was introduced into medium. Cell viability was confirmed after 48 hours by the Trypan blue method, or, cell viability was confirmed after 48 hours by performing medium exchange and then after 24 hours by performing the XTT method. Deferoxamine mesylate (Desferal (Trademark)) was used as a positive control. Results are as depicted in FIGS. 1A, 1B, 2 and 3.
# (§5) Moreover, similarly to the above experiment on antitumor effects, the antitumor effects of the chelating agent of test group 6 or 10 on each of human breast cancer cell line MCF-7 and human oral squamous cell carcinoma HSC-2 were confirmed.
# [12] = test system: human oral squamous cell carcinoma HSC-2; experiment: Antitumor effects, cell viability (XTT method); type: cell-based; conditions: FIG. 10
# Procedure: as §4, §5
# [13] = test system: HSC-2 cells; experiment: Apoptosis induction, TUNEL staining; type: cell-based, human; conditions: 50 μg/mL, 48 hours, FIG. 11A
# Procedure: as §2
# [14] = rat blood, oral 200 mg/kg, day 14
# [15] = rat blood, oral 1000 mg/kg, day 14
# [16] = rat blood, oral 1000 mg/kg, day 14, 1000 mg/kg
structure (smiles),measurement,setting,value
"CC(=O)N(O)CCCCCNC(=O)CCC(=O)N(O)CCCCCNC(=O)CCC(=O)N(O)CCCCCN [deferoxamine mesylate, Deferoxamine mesylate]",life or death,[1],died immediately after administration
same,effect of suppressing viral infection,"[2]; 500 μg/mL or 1000 μg/mL, listed as Desferal",the effect of suppressing viral infection was not observed; also recorded: unable to inhibit viral infection
Cl.O=C(O)[C@H](Cc1c[nH]cn1)NCc1ccc(O)c(O)c1O [Test group 10],antimicrobial effects on P. gingivalis (turbidity),[3],exhibited antimicrobial effects
same,ALP,[4]; [14],603 IU/L
same,ALT,[4]; [14],33 IU/L
same,AST,[4]; [14],61 IU/L
same,BUN,[4]; [14],22.5 mg/dL
same,CRE,[4]; [14],0.37 mg/dL
same,Ca,[4]; [14],11.2 mg/dL
same,GLU,[4]; [14],278 mg/dL
same,K,[4]; [14],6.1 mEQ/L
same,LD,[4]; [14],53 IU/L
same,NEFA,[4]; [14],111
same,Na,[4]; [14],146 mEQ/L
same,T-Bil,[4]; [14],0.06 mg/dL
same,TP,[4]; [14],5.5 g/dL
same,ALT,[4]; [15],25 IU/L
same,CRE,[4]; [15],0.36 mg/dL
same,ALP,[4]; [16],592 IU/L and 618 IU/L
same,AST,[4]; [16],56 IU/L and 90 IU/L
same,BUN,[4]; [16],24.6 mg/dL and 22.8 mg/dL
same,Ca,[4]; [16],10.6 mg/dL and 10.5 mg/dL
same,GLU,[4]; [16],259 mg/dL and 187 mg/dL
same,K,[4]; [16],4.8 mEQ/L and 4.9 mEQ/L
same,Na,[4]; [16],142 mEQ/L and 143 mEQ/L
same,TP,[4]; [16],5.4 g/dL and 5.7 g/dL
same,Body weight,[4]; oral 200 mg/kg,170.83 g
same,Body weight,"[4]; oral 1000 mg/kg, 1000 mg/kg",170.73 g and 185.29 g
same,in vivo apoptosis induction in tumor tissue sections (TUNEL staining),"[5]; HCT116 subcutaneous tumor tissue, 200 mg/kg/day, FIG. 13B",FITC-derived green-stained cell images indicating apoptosis induction were confirmed
same,body weight change,"[5]; mouse, in vivo, 200 mg/kg/day",no change in body weight was observed
same,in vivo antitumor effects,"[5]; subcutaneously-transplanted HCT116 cells, nude mice, 200 mg/kg/day (5 times/week), FIGS. 13A, 14",exhibited antitumor effects
same,PARP cleaved fragments and caspase-3-cleaved fragments (Western blot),[6],PARP cleaved fragments and caspase-3-cleaved fragments were confirmed
same,PARP cleaved fragments and caspase-3-cleaved fragments (Western blot),[7],PARP cleaved fragments and caspase-3-cleaved fragments were confirmed
same,PARP cleaved fragments and caspase-3-cleaved fragments (Western blot),[8],PARP cleaved fragments and caspase-3-cleaved fragments were confirmed
same,apoptosis-inducing effects (TUNEL staining),[9],green-stained cells indicating apoptosis were confirmed
same,apoptosis-inducing effects (TUNEL staining),[10],green-stained cells (FITC positive cells) indicating apoptosis were confirmed
same,antitumor effects on MCF-7 (cell viability),[11],exhibit antitumor effects
same,antitumor effects on HSC-2 (cell viability),[12],exhibit antitumor effects
same,apoptosis-inducing effects (TUNEL staining),[13],green-stained cells indicating apoptosis were confirmed
same,effect of suppressing viral infection,[2]; 500 μg/mL,observed to have the effect of suppressing viral infection
